Measured values taken from patent publication US8058228B2, “Leptin peptide antagonists” (Boston Biomedical Research Institute, priority 2004, dated 2011).
Entries after “also recorded” stand apart in the source; their conditions may differ.

System: OB-R
Assay: IL-1R tl expression by rabbit endometrial cells (immunocytochemistry, Western blot)
Type: cell-based
Conditions: for effect on leptin up-regulation of IL-1R tl expression: LPA-2 30 and 120 nM, LPA-2Sc 120 nM, antibody 20 μg/ml
Method: Rabbit endometrial cells (5×10^5 cells/well) were cultured for 5-9 days in DMEM-MCDB105 (3:1) medium containing 10% fetal bovine serum (FBS), 5 μg/ml insulin, 1% amphopthericin B, 100 μg/ml streptomycin and 100 U/ml penicillin until confluent layers were obtained. The cells were washed twice with 100 mM phosphate saline buffer (PBS) −2% BSA (w/v), pH 7.2 and cultured for an additional 2 days in the same medium but without FBS (basal medium). This procedure was performed to reduce any effects of cytokines from FBS on the phosphorylation rate of Stat3 as well as the expression of other cytokines and their receptors. Cells were washed as described before and cultured in basal medium containing leptin (0-10 nM), OB-R antibody (1-20 μg/ml) and/or LPA-2 peptides (0-300 nM). Cultures were stopped at 24 h and the cells were used for immunocytochemistry, binding studies and western blot analysis. The conditioned media were collected, lyophilized and stored at −80° C. for ELISA determinations. Duplicate wells were run for each treatment and the experiments repeated at least three times with different cell preparations from different rabbits. Controls were the same cellular preparations cultured in basal medium containing non-specific goat IgGs and LPA-2Sc.
The rabbit endometrial cells were cultured as described above in duplicate on 8-well glass-bottom culture plates (Nalgene Nunc International, Naperville, Ill.) and fixed with methanol at −20° C. for 20 min for immunocytochemical studies. All the antibodies tested were diluted in PBS-2% BSA (w/v; buffer A).
Anti IL-1R tl (1 μg/ml), anti LIF-R (2 μg/ml), anti vimentin (1:50), anti cytokeratin (1:50) and anti p-Stat3 (1 μg/ml) antibodies were used to assess the expression of the respective antigens by rEEC and rESC cultures. After incubation with primary antibodies the cells were incubated with a streptavidin-biotin-alkaline phosphatase system according to the manufacturer directions (Vectastain, ABC-AP kit, Vector Laboratories, Burlingame, Calif.) and counter-stained with hematoxylin (Dako). Negative controls included cell preparations in which the primary antibodies were substituted by irrelevant species matched IgGs.
After culture in the presence of leptin, LPAs or antibodies, the endometrial cells were washed with ice-cold PBS and lysed by homogenization on ice with lysis buffer [[…] Tris, pH 7.4, containing […] NaCl, 2 mM EDTA, 10% glycerol, 50 mM β-glycerophosphate, […] NaF, 1% Nonidet P-40, 2 mM phenyl-methylsulfonyl fluoride, 2 mM sodium orthovanadate, 100 μM antipain, 0.1 mg/ml trypsin inhibitor and protease cocktail inhibitor 1:50 (Sigma)]. […] Protein concentrations were determined using the Bradford protein assay (BioRad Laboratories Inc., Hercules, Calif.). […]

| Substance | effect on basal expression of IL-1R tl (rESC, LPA-2 120 nM, Western blot) | effect on leptin up-regulation of IL-1R tl expression (rESC, leptin 3 nM) | IL-1R tl expression after leptin (rabbit endometrial cells, leptin 3 nM) |
| --- | --- | --- | --- |
| SRNVIQISNDLENLRDLLHVLAFSKS [LPA-2, 26 amino acid peptide, residues 70-95 of helix III of the human leptin molecule; leptin peptide antagonist] | inhibited the basal expression of IL-1R tl | completely abolished; also recorded: significantly decreased | – |
| VAEVLNRSDLIQRISFSLDLNNSKLH [LPA-2Sc, scrambled version of LPA-2, negative control, reference compound] | – | did not alter the leptin effect on IL-1R tl expression | – |
| leptin: human recombinant leptin (R&D Systems), OB-R ligand used as stimulus | – | – | substantially up-regulates IL-1R tl expression |
